Test results from PubChem BioAssay (NCI).
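All cell lines were grown in 96-well plates and treated with compound for 48 hours. At the TGI there is no net growth.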

Experiments:
Test in all cases: NCI tumour cell line growth inhibition, 48 h
[1] = system: SK-MEL-5 melanoma
[2] = system: UO-31 renal
[3] = system: UACC-62 melanoma
[4] = system: SF-295 CNS
[5] = system: MALME-3M melanoma
[6] = system: OVCAR-5 ovarian
[7] = system: NCI-H460 lung
[8] = system: IGROV1 ovarian
[9] = system: SK-MEL-28 melanoma
[10] = system: SNB-19 CNS
[11] = system: A549 NSCLC
[12] = system: LOX IMVI melanoma
[13] = system: LXFL 529 NSCLC
[14] = system: CCRF-CEM leukemia
[15] = system: EKVX NSCLC
[16] = system: M14 melanoma
[17] = system: SF-268 CNS
[18] = system: HL-60(TB) leukemia
[19] = system: SR leukemia
[20] = system: UACC-257 melanoma
[21] = system: RXF 393 renal
[22] = system: SNB-78 CNS
[23] = system: HOP-62 NSCLC
[24] = system: HCT-116 colon
[25] = system: OVCAR-3 ovarian
[26] = system: HOP-92 NSCLC
[27] = system: COLO 205 colon
[28] = system: KM12 colon
[29] = system: NCI-H226 lung
[30] = system: SK-MEL-2 melanoma
[31] = system: SNB-75 CNS
[32] = system: RXF-631 renal
[33] = system: U251 CNS
[34] = system: DLD-1 colon
[35] = system: M19-MEL melanoma
[36] = system: NCI-H522 lung
[37] = system: DMS 273 small cell lung
[38] = system: TK-10 renal
[39] = system: RPMI-8226 leukemia
[40] = system: HCT-15 colon
[41] = system: 786-0 renal
[42] = system: OVCAR-4 ovarian
[43] = system: A498 renal
[44] = system: K-562 leukemia
[45] = system: SK-OV-3 ovarian
[46] = system: CAKI-1 renal
[47] = system: SF-539 CNS
[48] = system: SN12C renal
[49] = system: HOP-18 NSCLC
[50] = system: HT29 colon
[51] = system: OVCAR-8 ovarian
[52] = system: SW-620 colon
[53] = system: KM20L2 colon
[54] = system: ACHN renal
[55] = system: DMS 114 small cell lung
[56] = system: NCI-H23 lung
[57] = system: XF 498 CNS
[58] = system: MOLT-4 leukemia
[59] = system: HCC-2998 colon
[60] = system: MCF7 breast
[61] = system: SN12K1 renal
[62] = system: P388 leukemia
[63] = system: NCI/ADR-RES ovarian
[64] = system: P388/ADR leukemia

Nc1nc2ncn(CC(O)CO)c2c(=O)[nH]1 (stereo not given)
TGI [1]: > 100 µM
TGI [2]: > 100 µM
TGI [3]: > 100 µM
TGI [4]: > 100 µM
TGI [5]: > 100 µM
TGI [6]: > 100 µM
TGI [7]: > 100 µM
TGI [8]: > 100 µM
TGI [9]: > 100 µM
TGI [10]: > 100 µM
TGI [11]: > 100 µM
TGI [12]: > 100 µM
TGI [13]: > 100 µM
TGI [14]: > 100 µM
TGI [15]: > 100 µM
TGI [16]: > 100 µM
TGI [17]: > 100 µM
TGI [18]: > 100 µM
TGI [19]: > 100 µM
TGI [20]: > 100 µM
TGI [21]: > 100 µM
TGI [22]: > 100 µM
TGI [23]: > 100 µM
TGI [24]: > 100 µM
TGI [25]: > 100 µM
TGI [26]: > 100 µM
TGI [27]: > 100 µM
TGI [28]: > 100 µM
TGI [29]: > 100 µM
TGI [30]: > 100 µM
TGI [31]: > 100 µM
TGI [32]: > 100 µM
TGI [33]: > 100 µM
TGI [34]: > 100 µM
TGI [35]: > 100 µM
TGI [36]: > 100 µM
TGI [37]: > 100 µM
TGI [38]: > 100 µM
TGI [39]: > 100 µM
TGI [40]: > 100 µM
TGI [41]: > 100 µM
TGI [42]: > 100 µM
TGI [43]: > 100 µM
TGI [44]: > 100 µM
TGI [45]: > 100 µM
TGI [46]: > 100 µM
TGI [47]: > 100 µM
TGI [48]: > 100 µM
TGI [49]: > 100 µM
TGI [50]: > 100 µM
TGI [51]: > 100 µM
TGI [52]: > 100 µM
TGI [53]: > 100 µM
TGI [54]: > 100 µM
TGI [55]: > 100 µM

CCc1ccccc1NC(=O)CC1NC(=O)CS1 (stereo not given)
TGI [1]: > 100 µM
TGI [2]: > 100 µM
TGI [3]: > 100 µM
TGI [4]: > 100 µM
TGI [56]: > 100 µM
TGI [5]: > 100 µM
TGI [6]: > 100 µM
TGI [7]: > 100 µM
TGI [8]: > 100 µM
TGI [9]: > 100 µM
TGI [10]: > 100 µM
TGI [11]: > 100 µM
TGI [12]: > 100 µM
TGI [13]: > 100 µM
TGI [14]: > 100 µM
TGI [15]: > 100 µM
TGI [16]: > 100 µM
TGI [17]: > 100 µM
TGI [18]: > 100 µM
TGI [20]: > 100 µM
TGI [21]: > 100 µM
TGI [22]: > 100 µM
TGI [23]: > 100 µM
TGI [24]: > 100 µM
TGI [25]: > 100 µM
TGI [26]: > 100 µM
TGI [57]: > 100 µM
TGI [27]: > 100 µM
TGI [28]: > 100 µM
TGI [29]: > 100 µM
TGI [30]: > 100 µM
TGI [31]: > 100 µM
TGI [58]: > 100 µM
TGI [32]: > 100 µM
TGI [33]: > 100 µM
TGI [34]: > 100 µM
TGI [35]: > 100 µM
TGI [36]: > 100 µM
TGI [37]: > 100 µM
TGI [38]: > 100 µM
TGI [39]: > 100 µM
TGI [41]: > 100 µM
TGI [42]: > 100 µM
TGI [43]: > 100 µM
TGI [44]: > 100 µM
TGI [45]: > 100 µM
TGI [46]: > 100 µM
TGI [47]: > 100 µM
TGI [48]: > 100 µM
TGI [49]: > 100 µM
TGI [51]: > 100 µM
TGI [59]: > 100 µM
TGI [52]: > 100 µM
TGI [53]: > 100 µM
TGI [55]: > 100 µM

c1ccc2cc3c(cc2c1)OP1(Oc2cccc4cccnc24)(O3)Oc2cc3ccccc3cc2O1
TGI [1]: 14.8 µM
TGI [2]: 20.1 µM
TGI [3]: 9.39 µM
TGI [4]: > 58.9 µM
TGI [56]: 16.9 µM
TGI [5]: > 76.8 µM
TGI [6]: 45.6 µM
TGI [7]: 12.3 µM
TGI [8]: > 100 µM
TGI [9]: > 100 µM
TGI [10]: > 100 µM
TGI [11]: > 100 µM
TGI [12]: 22.5 µM
TGI [14]: > 100 µM
TGI [15]: > 57.3 µM
TGI [17]: > 100 µM
TGI [18]: 5.78 µM
TGI [20]: 8.94 µM
TGI [21]: > 100 µM
TGI [22]: > 100 µM
TGI [60]: > 100 µM
TGI [23]: > 73.3 µM
TGI [24]: > 100 µM
TGI [25]: 5.45 µM
TGI [26]: 76.3 µM
TGI [57]: 9.98 µM
TGI [27]: > 100 µM
TGI [28]: 21.8 µM
TGI [29]: 44.5 µM
TGI [61]: 20.5 µM
TGI [30]: 79.6 µM
TGI [31]: 92.1 µM
TGI [33]: > 100 µM
TGI [62]: 4.57 µM
TGI [34]: > 100 µM
TGI [35]: 38.1 µM
TGI [36]: 35.4 µM
TGI [63]: 19.2 µM
TGI [37]: 12.4 µM
TGI [40]: > 100 µM
TGI [42]: 11.8 µM
TGI [43]: 64.3 µM
TGI [64]: 6.73 µM
TGI [44]: > 40.3 µM
TGI [45]: > 96.6 µM
TGI [46]: 20.6 µM
TGI [47]: 49.2 µM
TGI [48]: > 100 µM
TGI [49]: 56.3 µM
TGI [50]: 12.6 µM
TGI [51]: > 57.1 µM
TGI [59]: 27.2 µM
TGI [52]: > 50.2 µM
TGI [53]: 20.3 µM
TGI [55]: > 23 µM
